{"source": "patent US20110155130A1", "about": "“Dronabinol Treatment for Migraines” (Unimed Pharmaceuticals, Inc., priority 2005, published 2011)", "origin": "cited, not measured here", "conditions": "5 mg to 20 mg oral doses of THC; randomized controlled clinical trials"}
{"smiles": "CCCCCc1cc(O)c2c(c1)OC(C)(C)[C@@H]1CCC(C)=C[C@@H]21", "note": "[THC, (6a R-trans)-6a,7,8,10a-tetrahydro-6,6,9-trimethyl-3-pentyl-6H-dibenzo[b,d]pyran-1-ol]", "values": [{"measurement": "effectiveness compared with codeine", "value": "as effective as 50 mg to 120 mg of codeine"}]}
